Experiments:
[1] = Volatility by thermogravometric analysis (TGA) weight loss at elevated temperature; format: physicochemical; details: 120° C., linear region of weight loss curve
Method: The volatility of the 2,4-D potassium half salt (as a concentrated aqueous suspension) was compared to that of 2,4-D acid (as technical solid), 2,4-D ethylhexyl ester (EHE, as technical liquid), and 2,4-D dimethylammonium (DMA) and 2,4-D dimethylethanolammonium (DMEA) salts (both as concentrated aqueous solutions) by thermogravometric analysis (TGA) weight loss at elevated temperature. Each of the 2,4-D samples was added in turn (approximately 25-30 mg) to the reservoir cup of a TA Instruments Model 2050 TGA instrument. The temperature was maintained at 120° C. and the weight loss was recorded as a function of time.
For the water-containing samples, rapid weight loss was observed during water removal followed by a linear region (constant rate of loss). Linear curve fitting was applied in this region of the curve to determine rate of 2,4-D loss in μg/min.

[2] = tested on: common lambsquarters (CHEAL); assay: Greenhouse postemergence weed control, common lambsquarters; format: in vivo; details: 800 g ae/ha, no adjuvant, 21 DAA
Method: (§1) Plant material was propagated in the Indianapolis greenhouses under warm temperature conditions of 26 to 28° C. and a 16 hour day length and 8 hour dark cycle. Natural light was supplemented with 1000-watt metal halide overhead lamps with an average illumination of 500 μE m−2 s−1 photosynthetic active radiation for 16 consecutive hours each day. Seeds of each species were planted in 10 cm square pots containing a potting soil, Metro-Mix 360®. Metro-mix 360® consists of Canadian sphagnum peat moss, coarse perlite, bark ash, a starter nutrient charge (with gypsum), a slow-release nitrogen fertilizer and dolomitic limestone. Plants were top watered prior to treatment and sub-irrigated after treatment. Plant material was fertilized three times a week with Jack's fertilizer solution (Jack's Professional 15-5-15 4 Ca 2 Mg fertilizer manufactured by JR PETERS INC.; 6656 Grant Way; Allentown, Pa. 18106). Appropriate amounts of herbicides were weighed and diluted with Indianapolis tap water.
(§2) All treatments were applied to selected plant species with a track sprayer (Generation III Research Sprayer manufactured by DeVries Manufacturing in Hollandale, Minn., USA) located in building 306, laboratory E1-483, at the Dow AgroSciences facility in Indianapolis, Ind. The track sprayer was calibrated to deliver 140 L/ha at 40 psi ([…]) pressure utilizing an 8002E even, flat fan nozzle. Track sprayer speed was set at 1.6 mph ([…]). Applications were made to replicates of each species in a randomized complete block design, with 4 replications per treatment.
(§3) All species were evaluated at 15 or 21 days after application (DAA). The treated plants and control plants were evaluated using a rating scale of 0-100%, wherein 0% indicates no injury or control of the vegetation and 100% indicates complete death of the plants.

redroot pigweed (AMARE) = assay: Greenhouse postemergence weed control, redroot pigweed; format: in vivo; details: 800 g ae/ha, no adjuvant, 21 DAA
Method: as §1, §2, §3

sicklepod (CASOB) = assay: Greenhouse postemergence weed control, sicklepod; format: in vivo; details: 800 g ae/ha, no adjuvant, 21 DAA
Method: as §1, §2, §3

common ragweed (AMBTR) = assay: Greenhouse postemergence weed control, common ragweed; format: in vivo; details: 800 g ae/ha, no adjuvant, 21 DAA
Method: as §1, §2, §3

O=C(O)COc1ccc(Cl)cc1Cl [2,4-D Acid, 2,4-dichlorophenoxyacetic acid]
Rate of Loss [1]: 2.29 µg/min

C[N+](C)(C)CCO.O=C([O-])COc1ccc(Cl)cc1Cl [2,4-D Choline]
% Control CHEAL [2]: 74% | % Control AMARE (redroot pigweed (AMARE)): 95%

CNC.O=C(O)COc1ccc(Cl)cc1Cl [2,4-D DMA, 2,4-D dimethylammonium]
Rate of Loss [1]: 1.5 µg/min | % Control CHEAL [2]: 73% | % Control CASOB (sicklepod (CASOB)): 95% | % Control AMARE (redroot pigweed (AMARE)): 91% | % Control AMBTR (common ragweed (AMBTR)): 100%

CN(C)CCO.O=C(O)COc1ccc(Cl)cc1Cl [2,4-D DMEA, 2,4-D dimethylethanolammonium]
Rate of Loss [1]: 0.905 µg/min

CCCCC(CC)COC(=O)COc1ccc(Cl)cc1Cl (stereo not drawn) [2,4-D EHE, 2,4-D ethylhexyl ester]
Rate of Loss [1]: 11 µg/min

O=C(O)COc1ccc(Cl)cc1Cl.O=C([O-])COc1ccc(Cl)cc1Cl.[K+] [2,4-D K Half Salt, 2,4-D Potassium Half Salt]
Rate of Loss [1]: 0.132 µg/min | % Control CHEAL [2]: 84% | % Control CASOB (sicklepod (CASOB)): 100% | % Control AMARE (redroot pigweed (AMARE)): 91% | % Control AMBTR (common ragweed (AMBTR)): 100%

N.O=C(O)COc1ccc(Cl)cc1Cl.O=C(O)COc1ccc(Cl)cc1Cl [2,4-D NH4 half-salt]
% Control CHEAL [2]: 74% | % Control CASOB (sicklepod (CASOB)): 100% | % Control AMARE (redroot pigweed (AMARE)): 91% | % Control AMBTR (common ragweed (AMBTR)): 100%

N.O=C(O)COc1ccc(Cl)cc1Cl [2,4-D NH4]
% Control CHEAL [2]: 92% | % Control CASOB (sicklepod (CASOB)): 100% | % Control AMARE (redroot pigweed (AMARE)): 95% | % Control AMBTR (common ragweed (AMBTR)): 99%

O=C(O)COc1ccc(Cl)cc1Cl.O=C([O-])COc1ccc(Cl)cc1Cl.[Na+] [2,4-D Na half-salt, 2,4-D Sodium Half Salt]
% Control CHEAL [2]: 85% | % Control CASOB (sicklepod (CASOB)): 100% | % Control AMARE (redroot pigweed (AMARE)): 92% | % Control AMBTR (common ragweed (AMBTR)): 100%

Reference: patent publication US10526271B2, “Compositions and methods related to half salts of herbicidal carboxylic acids” (Dow AgroSciences LLC, priority 2015, dated 2020)
